From ChEMBL document CHEMBL1130130, “New approaches to antiglaucoma therapy” (1997)

Test system: Oryctolagus cuniculus
Assay: Compound was evaluated for ocular hypotensive effects (intraocular pressure, IOP) by administering 0.5% of the drug twice daily
Assay type: functional, Eye

CC(C)(C)NC[C@H](O)COc1nsnc1N1CCOCC1 [TIMOLOL]
Activity: 21%
